Here are results for seven molecules from article PMC6711789 (Bioorganic & medicinal chemistry letters, 2019).

The subject of data set [1] is CYP1A2, 2C9, 2C19, 2D6, 3A4. The experiment in a line: CYP inhibition. It counts as in vitro ADME. Particulars: measured against CYP1A2, 2C9, 2C19, 2D6, 3A4.
The nature of data set [2]: Cytotoxicity against HepG2 cells using CellTiter Glo. It is filed as cell-based. Particulars: human.
Data set [3] deals with S. aureus ATCC 8235-4 (MSSA). The experiment in a line: Broth microdilution MIC against S. aureus ATCC 8235-4. It counts as cell-based. Particulars: lowest concentration preventing visible growth.
The subject of data set [4] is COXI and SDH-A mitochondrial proteins. It is filed as cell-based. Particulars: read-out: Mt protein synthesis inhibition IC50.

Marks after values point to notes of the source that are not given here.

Regarding `CC(=O)NC[C@H]1CN(c2ccc(N3CCOCC3)c(F)c2)C(=O)O1` [Linezolid, linezolid, reference compound], the CYP inhibition in data set [1] is over 100 µM. The EC50 in data set [2] was over 30 µM.
As for `CC(=O)NC[C@H]1CN(c2ccc(N3CCOC4(CCNC4)C3)c(F)c2)C(=O)O1` (stereo partly drawn) [Compound 27], the MIC in data set [3] is > 32^b μg/mL.
As for `CC(=O)NC[C@H]1CN(c2ccc(N3CCO[C@@]4(CCCOC4)C3)c(F)c2)C(=O)O1` [Compound 19a], the CYP inhibition in data set [1] was over 100 µM. This molecule displayed an EC50 in data set [2] of over 30 µM. Besides, in data set [4], the IC50 was determined as 30 µM.
As for `CC(=O)NC[C@H]1CN(c2ccc(N3CCOC(C)(CCN(C)C)C3)c(F)c2)C(=O)O1` (stereo partly drawn) [Compound 23], the MIC in data set [3] is reported as > 32^b μg/mL.
Take `CC(=O)NC[C@H]1CN(c2ccc(N3CCOC4(CCN(C)C4)C3)c(F)c2)C(=O)O1` (stereo partly drawn) [Compound 17]: the MIC in data set [3] is recorded as > 32^b μg/mL.
On to `CC(=O)NC[C@H]1CN(c2ccc(N3CCO[C@]4(CCCOC4)C3)c(F)c2)C(=O)O1` [Compound 19b], for which, in data set [1], the CYP inhibition is over 100 µM. In data set [2], this molecule came in with an EC50 of over 30 µM. Moreover, the IC50 in data set [4] is over 30 µM.
In the case of `CC(=O)NC[C@H]1CN(c2ccc(N3CCOC4(CCCNC4)C3)c(F)c2)C(=O)O1` (stereo partly drawn) [Compound 25], the MIC in data set [3] was > 32^b μg/mL.
